According to PMC5416783, “Inhibition of homologous phosphorolytic ribonucleases by citrate may represent an evolutionarily conserved communicative link between RNA degradation and central metabolism” (Nucleic Acids Research, 2017):

Tests used:
Test in all cases: end-point exoribonuclease gel assay, […]'-FAM-A20 RNA
Format in all cases: biochemical
[1] = target: T1, S. solfataricus Exosome (SsoExosome) (Saccharolobus solfataricus, UniProt Q9UXC0+Q9UXC2); details: inhibition; 700 nM FAM-A20 RNA, 240 nM enzyme, 3.75 mM MgCl2, phosphate, pH 8, 37 °C, 10 min; control without citrate 4.0 ± 0.5 %
T1 construct: gene rrp41; N-terminal hexahistidine Rrp4 co-expressed with untagged Rrp41 and Rrp42 in E. coli BL21(DE3)pLysS; codon-optimised; trimer of Rrp41/Rrp42 dimers with Rrp4 cap; with Exosome complex component Rrp4
T1 sequence (Q9UXC2 1-248): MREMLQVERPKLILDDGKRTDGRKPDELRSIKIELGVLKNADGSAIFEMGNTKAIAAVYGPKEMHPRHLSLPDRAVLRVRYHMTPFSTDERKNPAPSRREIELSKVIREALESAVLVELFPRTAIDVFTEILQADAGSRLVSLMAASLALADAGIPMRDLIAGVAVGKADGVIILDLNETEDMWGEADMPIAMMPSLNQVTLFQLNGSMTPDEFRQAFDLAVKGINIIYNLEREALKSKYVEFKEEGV
T1 sequence (Q9UXC0 1-275): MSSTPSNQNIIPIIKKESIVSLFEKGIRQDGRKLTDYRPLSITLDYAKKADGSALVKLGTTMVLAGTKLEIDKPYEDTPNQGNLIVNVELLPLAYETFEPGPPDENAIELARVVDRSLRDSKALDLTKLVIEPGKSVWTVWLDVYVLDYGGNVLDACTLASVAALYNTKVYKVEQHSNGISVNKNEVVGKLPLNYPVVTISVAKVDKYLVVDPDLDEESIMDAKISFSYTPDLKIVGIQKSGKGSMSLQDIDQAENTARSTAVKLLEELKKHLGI
T1 sequence (Q9UXC4 1-249 partner): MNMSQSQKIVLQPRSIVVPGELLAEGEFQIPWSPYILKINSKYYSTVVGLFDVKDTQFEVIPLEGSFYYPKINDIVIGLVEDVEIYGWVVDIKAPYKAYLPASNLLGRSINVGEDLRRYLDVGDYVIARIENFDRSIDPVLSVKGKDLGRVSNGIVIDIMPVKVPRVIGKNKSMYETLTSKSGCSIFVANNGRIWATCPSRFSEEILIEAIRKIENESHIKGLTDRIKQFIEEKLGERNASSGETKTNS

[2] = target: T2, H. sapiens PNPase (hPNPase) (Homo sapiens, UniProt Q8TCS8); details: inhibition; 700 nM FAM-A20 RNA, 240 nM enzyme, 3.75 mM MgCl2, phosphate, pH 8, 37 °C, 60 min; control without citrate 8.4 ± 2.8 %
T2 construct: gene PNPT1; N-terminal hexahistidine tag (pET-28b), codon-optimised, expressed in E. coli BL21(DE3)pLysS; homotrimer
T2 sequence (Q8TCS8 46-783): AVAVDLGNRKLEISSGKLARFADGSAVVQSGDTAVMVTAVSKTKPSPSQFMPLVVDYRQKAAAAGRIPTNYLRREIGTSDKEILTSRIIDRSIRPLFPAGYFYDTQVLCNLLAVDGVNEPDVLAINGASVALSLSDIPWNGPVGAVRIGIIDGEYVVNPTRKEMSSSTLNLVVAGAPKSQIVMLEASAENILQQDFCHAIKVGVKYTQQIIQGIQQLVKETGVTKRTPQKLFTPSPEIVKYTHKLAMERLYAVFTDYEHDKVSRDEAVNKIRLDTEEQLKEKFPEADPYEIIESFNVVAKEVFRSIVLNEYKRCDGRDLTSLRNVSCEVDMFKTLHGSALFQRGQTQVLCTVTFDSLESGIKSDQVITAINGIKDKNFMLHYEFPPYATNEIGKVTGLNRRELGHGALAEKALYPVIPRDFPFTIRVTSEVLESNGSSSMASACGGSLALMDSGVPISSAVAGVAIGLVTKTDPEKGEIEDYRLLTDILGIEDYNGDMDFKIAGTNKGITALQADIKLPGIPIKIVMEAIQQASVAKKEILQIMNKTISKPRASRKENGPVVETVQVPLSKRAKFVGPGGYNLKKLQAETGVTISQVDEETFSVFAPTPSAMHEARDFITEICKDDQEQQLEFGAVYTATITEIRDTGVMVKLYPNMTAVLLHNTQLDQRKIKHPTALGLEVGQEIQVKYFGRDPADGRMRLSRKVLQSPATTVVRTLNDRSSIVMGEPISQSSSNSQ

[3] = target: T3, E. coli PNPase (EcPNPase) (Escherichia coli, UniProt P05055); details: inhibition; 700 nM FAM-A20 RNA, 240 nM enzyme, 3.75 mM MgCl2, phosphate, pH 8, 37 °C, 10 min; control without citrate 2.2 ± 0.4 %
T3 construct: gene pnp; pET-Duet1_EcPNPase expressed in E. coli BL21(DE3)pLysS; homotrimer
T3 sequence (P05055 1-711): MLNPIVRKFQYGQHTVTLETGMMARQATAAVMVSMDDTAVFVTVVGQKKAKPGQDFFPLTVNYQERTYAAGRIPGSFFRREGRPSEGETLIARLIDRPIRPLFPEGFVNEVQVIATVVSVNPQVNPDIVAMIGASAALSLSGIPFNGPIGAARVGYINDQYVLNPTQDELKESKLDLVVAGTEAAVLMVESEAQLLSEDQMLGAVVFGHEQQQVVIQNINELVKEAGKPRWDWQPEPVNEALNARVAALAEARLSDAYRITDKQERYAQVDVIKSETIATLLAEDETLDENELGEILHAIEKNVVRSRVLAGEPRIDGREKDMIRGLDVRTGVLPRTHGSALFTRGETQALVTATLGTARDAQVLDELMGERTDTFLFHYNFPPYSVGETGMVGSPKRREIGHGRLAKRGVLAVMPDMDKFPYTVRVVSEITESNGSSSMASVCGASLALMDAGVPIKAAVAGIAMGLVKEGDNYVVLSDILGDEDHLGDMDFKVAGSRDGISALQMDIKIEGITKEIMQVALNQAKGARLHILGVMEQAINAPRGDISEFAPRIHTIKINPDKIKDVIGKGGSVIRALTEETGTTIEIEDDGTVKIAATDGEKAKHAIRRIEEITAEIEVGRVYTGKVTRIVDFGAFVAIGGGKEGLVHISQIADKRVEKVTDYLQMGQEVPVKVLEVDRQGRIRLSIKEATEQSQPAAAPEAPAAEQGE

[4] = target: T4, Synechocystis sp. PNPase (SspPNPase) (Synechocystis sp. PCC 6803, UniProt P72659); details: inhibition; 700 nM FAM-A20 RNA, 240 nM enzyme, 3.75 mM MgCl2, phosphate, pH 8, 37 °C, 30 min; control without citrate 2.2 ± 0.2 %
T4 construct: gene pnp; recombinant, commercial (Sigma)
T4 sequence (P72659 1-718): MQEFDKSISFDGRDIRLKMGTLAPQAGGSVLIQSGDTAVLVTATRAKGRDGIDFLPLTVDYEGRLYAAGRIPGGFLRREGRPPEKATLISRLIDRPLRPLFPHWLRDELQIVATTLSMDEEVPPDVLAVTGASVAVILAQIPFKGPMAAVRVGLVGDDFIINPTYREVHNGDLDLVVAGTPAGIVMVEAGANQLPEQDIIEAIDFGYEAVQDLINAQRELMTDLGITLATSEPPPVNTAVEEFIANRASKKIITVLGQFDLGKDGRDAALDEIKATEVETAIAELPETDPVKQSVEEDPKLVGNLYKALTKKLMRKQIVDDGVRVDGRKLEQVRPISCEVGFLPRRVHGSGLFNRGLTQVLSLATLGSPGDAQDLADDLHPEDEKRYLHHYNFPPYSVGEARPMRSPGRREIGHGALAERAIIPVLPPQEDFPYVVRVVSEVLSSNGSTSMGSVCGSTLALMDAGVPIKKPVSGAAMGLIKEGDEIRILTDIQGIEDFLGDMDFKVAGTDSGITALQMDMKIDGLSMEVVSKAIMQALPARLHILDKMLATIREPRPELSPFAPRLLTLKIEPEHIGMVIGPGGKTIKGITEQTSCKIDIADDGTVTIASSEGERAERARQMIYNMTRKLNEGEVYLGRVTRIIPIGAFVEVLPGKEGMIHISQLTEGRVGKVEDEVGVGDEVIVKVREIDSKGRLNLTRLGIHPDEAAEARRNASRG

- Percentage substrate remaining at assay end-point / + citrate [1]: 13.6 ± 0.5%
- Percentage substrate remaining at assay end-point / + citrate [2]: 22.8 ± 4.8%
- Percentage substrate remaining at assay end-point / + citrate [3]: 5.6 ± 1.5%
- Percentage substrate remaining at assay end-point / + citrate [4]: 6.9 ± 2.2%
Compound: O=C(O)CC(O)(CC(=O)O)C(=O)O [citrate]
